For data set [1], the system named is middle cerebral artery occlusion (MCAO) model. Kind of data set: Middle cerebral artery occlusion (MCAO) model, infarct area and volume by TTC stain. To be noted: 37 mg/kg IV 30 minutes and 24 hours after occlusion. Format: in vivo, male F-344 rats. The text has this:
The model depends on a surgical procedure which is a modification of that originally proposed by A. Tamura, et al, "Focal Cerebral Ischemia in the Rat: Description of Technique and Early Neuropathological Consequences Following Middle Cerebral Artery Occlusion," J. Cerb. Blood Flow Metab. Vol. 1, pp. 53-60 and is similar to the methods described by Duverger and MacKenzie, "The Quantification of Cerebral Infarction Following Local Ischemia in the Rat: Influence of Strain, Arterial Pressure, Blood Glucose Concentration and Age", J. Cerb. Blood Flow Metab., Vol. 8, pp. 449-461 and S. Brint, et al, "Focal Brain Ischemia in the Rat: Methods for Reproducible Neocortical Infarction Using Tandem Occlusion of the Distal Middle Cerebral and Ipsilateral Common Carotid Arteries", J. Cereb. Blood Flow Metab., Vol. 8, pp. 474-485.
Generally, male F-344 rats weighing 300-350 g are anesthetized in 2% halothane in room air. The right femoral vein is cannulated and the tubing led subcutaneously to an exit behind the neck to allow intravenous (IV) drug injection. The left common carotid is permanently occluded with a 6-0 silk ligature. The left middle cerebral artery (MCA) is exposed through a 2-mm burr hole drilled 1-2 mm rostral to the fusion of the zygomatic arch with the squamosal bone. The dura is cut, the MCA lifted off the surface of the brain, electrocauterized, and cut. The wound margins are sutured shut and the anesthesia stopped.
The stable pharmaceutical composition is used for the assay or a solution for the assay may be prepared as follows: The hydrated fosphenytoin sodium (2.25 H₂O equivalent per mole) is dissolved in saline (pH = 7) at a concentration of 37 mg/mL and administered at 1 mL/kg. This dose of 37 mg/kg is equal to 30 mg/kg of the free base of fosphenytoin sodium. In vivo fosphenytoin sodium or the phenytoin prodrug undergoes a phosphate ester cleavage followed by a dehydroxymethylation to yield the free base of phenytoin. The dose administered is equivalent to 21 mg/kg of the free base of phenytoin.
This solution is then administered intravenously (IV) 30 minutes and 24 hours after occlusion to groups of 12 animals each. Forty-eight hours following occlusion rats are anesthetized with ketamine (150 mg/kg, IP), decapitated, the brains rapidly removed, and placed on ice. With the aid of a brain mold (Activational Systems), the brain is sliced into four 2-mm sections: one section anterior (ANT) to the MCA and three sections posterior (ANT-MED, POST-MED, and POST) to the MCA. The sections are then placed for 30 minutes in a 2% solution of 2,3,5 triphenyltetrazolium chloride (TTC) in saline. The brains are stored in 10% neutral buffered […] for analysis.
The brains are coded and the analysis is performed blinded. The area of infarction in each section is outlined with the aid of a morphometric analysis program (Bioquant IV, R & M Biometrics). The TTC stain is converted into a red marker in live mitochondria, while the infarcted area remains white. The total volume of infarction is calculated from the areas of the four sections assuming three truncated cones. The mean area for each section and the mean total volume are calculated; vehicle and drug treatment are compared using the Student's t-test.

The nature of data set [2]: Compatibility with standard intravenous solutions (precipitate formation). It counts as physicochemical. To be noted: solutions and mixes with standard intravenous solutions (dextrose, saline, Ringers lactate). The text has this:
Supplementary active ingredients can also be incorporated into the formulations of formula I and its salts. The formula I and its salts, and particularly fosphenytoin sodium, can be and is formulated so as to be compatible with the commonly used intravenous fluids including solutions based on dextrose, […] or 0.9% saline as well as more complicated solutions including/such as Ringers lactate, and the like.

The mark [3] stands for this setting: section posterior to the MCA, forty-eight hours following occlusion, mean ± standard deviation, N = 12.

Counter-ions that a name gives are not always drawn.

Consider `O=C1NC(c2ccccc2)(c2ccccc2)C(=O)N1COP(=O)(O)O` [Disodium Salt of Prophenytoin, 3-(hydroxymethyl)-5,5-diphenylhydantoin disodium phosphate ester], for which, in data set [1] (area of infarction vs Vehicle, Probability 0.006), the “% Change, POST” value is -71.56%. In addition, in data set [1] (area of infarction vs Vehicle, Probability 0.008), the “% Change, POS-MED” value is -57.10%. Besides, the “% Change, ANT-MED” value in data set [1] (area of infarction vs Vehicle, Probability 0.049) is reported as -22.82%. In addition, the “% Change, ANT” value in data set [1] (area of infarction vs Vehicle, Probability 0.160) is on record as -18.58%. Further, the “TOTAL VOLUME of infarction” value in data set [1] (calculated from the areas of the four sections, forty-eight hours following occlusion, mean ± standard deviation, N = 12) is 43.21 ±21.85. Also, the “area of infarction, ANT” value in data set [1] (section anterior to the MCA, forty-eight hours following occlusion, mean ± standard deviation, N = 12) is 9.03 ± 2.91. Further, in data set [1] (setting [3]), the “area of infarction, ANT-MED” value is 11.23 ± 2.95; the “area of infarction, POS-MED” value worked out at 5.23 ± 5.44; the “area of infarction, POST” value amounted to 2.97 ± 4.39. In addition, in data set [1] (total volume of infarction vs Vehicle, Probability 0.010), the “% Change, TOTAL VOLUME” value is reported as -42.07%. Also, the “precipitate formation in standard intravenous solutions” value in data set [2] is on record as “do not form precipitates”.

(Values after EP0427925A2, “Use of prophenytoin for preparing pharmaceutical preparations for treating stroke and cerebral ischemia” (WARNER-LAMBERT COMPANY, priority 1989, dated 1991).)
